# What was measured:
# [1] = tested on: clinical isolates containing an I50L substitution (and their baseline isolates); test: PhenoSense phenotypic susceptibility of clinical isolates from ATV-treated patients who developed I50L; type: cell-based, HIV-1; settings: for Subceptibility, Fold Change in EC50 relative to reference strain: Subject 169, Week 114; for median increase in susceptibility from baseline: on emergence of I50L, n=4 to 15; for percentage of I50L isolates with susceptibility (FC) 0.4-fold or lower: relative to the reference strain
# Text: Study Population. Viral samples (baseline and on-treatment, where available) were obtained from patients who experienced virologic failure while enrolled in studies AI424-007/041 [12] (ATV+d4T and ddI), AI424-008/044 [13, 14] (ATV+d4T and 3TC) and AI424-034 [9] (ATV or EFV in combination with ZDV and 3TC). […] In general, virologic failure specimens were selected for further resistance evaluation only if they contained >1,000 copies/mL HIV-1 RNA and there was no indication that the specimen came from a patient at a time of transient non-adherence to study drug(s). […] For non-responders, samples from week 16 (or 24) were tested. Drug adherence was determined from pill counts of returned study medications at each scheduled visit.
# (§1) Drug Susceptibility Assays. Clinical isolates were subjected to phenotypic (PhenoSense™) and genotypic (GeneSeq™) analysis by Virologic, Inc. as described elsewhere.
# [2] = tested on: clinical isolates containing an I50V; test: PhenoSense phenotypic susceptibility of clinical isolates containing I50V; type: cell-based, HIV-1
# Text: as §1
# Because an I50V substitution is a signature mutation sometimes associated with APV resistance, the cross-resistance relationship between ATV and APV was further examined.
# [3] = tested on: clinical isolates containing a D30N substitution; test: PhenoSense phenotypic susceptibility of clinical isolates containing D30N; type: cell-based, HIV-1; settings: 75 D30N containing isolates, FIG. 3
# Description: as §1
# Comparative Studies of I50L and D30N Containing Viruses. […] Comparative studies were performed on the 18 phenotyped viruses containing an I50L and 75 clinical isolates containing a D30N substitution without evidence of cross-resistance (FC≧2.5) to other PIs.
# [4] = tested on: recombinant HIV-1 viruses (NL4-3, RF, LAI) in MT-2 cells; test: MT-2 cell susceptibility assay of recombinant viruses; type: cell-based; settings: all three viral strains, I50L or I50L/A71V introduced by site-directed mutagenesis
# Description: Cells and Viruses. MT-2 cells, HIV-1 RF, HIV1-LAI, and the HIV-1 NL4-3 proviral clones were obtained through the AIDS Research and Reference Reagent Program, National Institutes of Health. MT-2 cells were cultured in RPMI 1640 medium supplemented with 10% fetal bovine serum, 2 mM L-glutamine, and 10 mM Hepes buffer. HIV-1 viruses were generated by transient transfection of the proviral DNA into Human Embryonic Kidney 293 cells using Lipofectamine reagents (Gibco BRL). The viruses were harvested 72 hr post-transfection, amplified in MT-2 cells, and titered in the same cells using a virus yield assay.
# Recombinant HIV-1 Variants and Chimeric NL4-3 Proviral Clones. HIV-1 strains with defined substitutions in the protease gene were generated by QuikChange® site-directed mutagenesis as recommended by the manufacturer (Stratagene). Recombinant NL4-3 and LAI proviral clones containing the wild-type and mutant protease genes from RF and clinical isolates were constructed by replacing the SseI/ApaI fragment of pNL4-3 with the appropriate SseI/ApaI protease fragments.
# Recombinant viruses (generated separately from those made for PhenoSense assays) were tested in an MT-2 cell susceptibility assay at Bristol Myers Squibb. MT-2 cells were infected with recombinant viruses at a multiplicity of infection (MOI) of 0.005 50% tissue culture infective doses (TCID50)/cell followed by incubation in the presence or absence of serially diluted protease inhibitors for 4 to 7 days. Virus yields were quantified using a RT assay as previously described. The results from at least four independent experiments were used to calculate the EC50.
# [5] = tested on: clinical isolates from patients on NFV regimens; settings: isolates containing D30N as the only primary PI mutation; cited from earlier work
# [6] = tested on: HIV-1 variants containing I50V; settings: in vitro; cited from earlier work
structure (smiles),measurement,setting,value
"CC(C)CN(C[C@@H](O)[C@H](Cc1ccccc1)NC(=O)O[C@H]1CCOC1)S(=O)(=O)c1ccc(N)cc1 [APV, amprenavir]",cross-resistance,[1]; I50L containing clinical isolates,none of the I50L containing clinical isolates showed evidence of APV resistance
same,"Susceptibility, Fold Change in EC50 relative to reference strain",[1]; Isolate with I50L 1,0.3 Fold Change
same,"Susceptibility, Fold Change in EC50 relative to reference strain",[1]; Isolate with I50L 2,0.6 Fold Change
same,"Susceptibility, Fold Change in EC50 relative to reference strain",[1]; Isolate with I50L 3,0.5 Fold Change
same,"Susceptibility, Fold Change in EC50 relative to reference strain",[1]; Isolate with I50L 4,0.4 Fold Change
same,"Susceptibility, Fold Change in EC50 relative to reference strain",[1]; Isolate with I50L 5,0.6 Fold Change
same,"Susceptibility, Fold Change in EC50 relative to reference strain",[1]; Isolate with I50L 6,0.4 Fold Change
same,"Susceptibility, Fold Change in EC50 relative to reference strain",[1]; Isolate with I50L 7,0.6 Fold Change
same,"Susceptibility, Fold Change in EC50 relative to reference strain",[1]; Isolate with I50L 8,0.8 Fold Change
same,"Susceptibility, Fold Change in EC50 relative to reference strain",[1]; Isolate with I50L 9,0.6 Fold Change
same,"Susceptibility, Fold Change in EC50 relative to reference strain",[1]; Isolate with I50L 10,0.3 Fold Change
same,"Susceptibility, Fold Change in EC50 relative to reference strain",[1]; Isolate with I50L 11,0.4 Fold Change
same,"Susceptibility, Fold Change in EC50 relative to reference strain",[1]; Isolate with I50L 12,0.7 Fold Change
same,"Susceptibility, Fold Change in EC50 relative to reference strain",[1]; Isolate with I50L 13,0.7 Fold Change
same,"Susceptibility, Fold Change in EC50 relative to reference strain",[1]; Isolate with I50L 14,0.8 Fold Change
same,"Susceptibility, Fold Change in EC50 relative to reference strain",[1]; Isolate with I50L 15,0.9 Fold Change
same,"Susceptibility, Fold Change in EC50 relative to reference strain",[1]; Isolate with I50L 16,0.4 Fold Change
same,"Susceptibility, Fold Change in EC50 relative to reference strain","[1]; Subject 076, Week 80",0.6 Fold Change
same,"Susceptibility, Fold Change in EC50 relative to reference strain","[1]; Subject 076, Week 92",0.9 Fold Change
same,"Susceptibility, Fold Change in EC50 relative to reference strain","[1]; Subject 100, Week 1.7",1.5 Fold Change
same,"Susceptibility, Fold Change in EC50 relative to reference strain","[1]; Subject 169, Week 0.1",0.6 Fold Change
same,"Susceptibility, Fold Change in EC50 relative to reference strain","[1]; Subject 169, Week 90",0.7 Fold Change
same,"Susceptibility, Fold Change in EC50 relative to reference strain","[1]; Subject 169, Week 102",0.6 Fold Change
same,"Subceptibility, Fold Change in EC50 relative to reference strain",[1],1.2 Fold Change
same,"Susceptibility, Fold Change in EC50 relative to reference strain","[1]; Subject 362, Week 0.1",1.0 Fold Change
same,"Susceptibility, Fold Change in EC50 relative to reference strain","[1]; Subject 362, Week 108",1.1 Fold Change
same,percentage of baseline isolates exhibiting a FC≦0.4,[1],21%
same,median increase in susceptibility from baseline,[1],1.5 fold
same,percentage of I50L isolates with susceptibility (FC) 0.4-fold or lower,[1],39%
same,"Susceptibility, Fold Change in EC50 relative to reference strain",[2]; Isolate with I50V 1,3.5 Fold Change
same,"Susceptibility, Fold Change in EC50 relative to reference strain",[2]; Isolate with I50V 2,4.2 Fold Change
same,"Susceptibility, Fold Change in EC50 relative to reference strain",[2]; Isolate with I50V 3,8.0 Fold Change
same,"Susceptibility, Fold Change in EC50 relative to reference strain",[2]; Isolate with I50V 4,9.4 Fold Change
same,"Susceptibility, Fold Change in EC50 relative to reference strain",[2]; Isolate with I50V 5,11 Fold Change
same,"Susceptibility, Fold Change in EC50 relative to reference strain",[2]; Isolate with I50V 6,11 Fold Change
same,"Susceptibility, Fold Change in EC50 relative to reference strain",[2]; Isolate with I50V 7,12 Fold Change
same,"Susceptibility, Fold Change in EC50 relative to reference strain",[2]; Isolate with I50V 8,14 Fold Change
same,median FC,[3],0.6
same,change in susceptibility,[4],enhanced susceptibility
same,susceptibility,[5],remained susceptible
"CC(C)(C)NC(=O)[C@@H]1CN(Cc2cccnc2)CCN1C[C@@H](O)C[C@@H](Cc1ccccc1)C(=O)N[C@H]1c2ccccc2C[C@H]1O [IDV, indinavir]","Susceptibility, Fold Change in EC50 relative to reference strain","[1]; Subject 076, Week 80",0.4 Fold Change
same,"Susceptibility, Fold Change in EC50 relative to reference strain","[1]; Subject 076, Week 92",0.5 Fold Change
same,"Susceptibility, Fold Change in EC50 relative to reference strain","[1]; Subject 100, Week 1.7",1.6 Fold Change
same,"Susceptibility, Fold Change in EC50 relative to reference strain","[1]; Subject 169, Week 0.1",0.8 Fold Change
same,"Susceptibility, Fold Change in EC50 relative to reference strain","[1]; Subject 169, Week 90",0.5 Fold Change
same,"Susceptibility, Fold Change in EC50 relative to reference strain","[1]; Subject 169, Week 102",0.4 Fold Change
same,"Subceptibility, Fold Change in EC50 relative to reference strain",[1],0.4 Fold Change
same,"Susceptibility, Fold Change in EC50 relative to reference strain","[1]; Subject 362, Week 0.1",1.3 Fold Change
same,"Susceptibility, Fold Change in EC50 relative to reference strain","[1]; Subject 362, Week 108",0.7 Fold Change
same,percentage of baseline isolates exhibiting a FC≦0.4,[1],0%
same,median increase in susceptibility from baseline,[1],2.0 fold
same,percentage of I50L isolates with susceptibility (FC) 0.4-fold or lower,[1],58%
same,median FC,[1],≤ 0.4
same,median FC,[3],small median decreases in susceptibility
same,change in susceptibility,[4],enhanced susceptibility
same,susceptibility,[5],remained susceptible
same,effect of I50V on susceptibility,[6],increased susceptibility
"Cc1cccc(C)c1OCC(=O)N[C@@H](Cc1ccccc1)[C@@H](O)C[C@H](Cc1ccccc1)NC(=O)[C@H](C(C)C)N1CCCNC1=O [LPV, lopinavir]","Susceptibility, Fold Change in EC50 relative to reference strain","[1]; Subject 076, Week 80",0.6 Fold Change
same,"Susceptibility, Fold Change in EC50 relative to reference strain","[1]; Subject 076, Week 92",0.5 Fold Change
same,percentage of baseline isolates exhibiting a FC≦0.4,[1],0%
same,median increase in susceptibility from baseline,[1],3.2 fold
same,percentage of I50L isolates with susceptibility (FC) 0.4-fold or lower,[1],100%
same,median FC,[1],≤ 0.4
same,change in susceptibility,[4],enhanced susceptibility
same,effect of I50V on susceptibility,[6],reduced susceptibility
"CC(C)c1nc(CN(C)C(=O)N[C@H](C(=O)N[C@@H](Cc2ccccc2)C[C@H](O)[C@H](Cc2ccccc2)NC(=O)OCc2cncs2)C(C)C)cs1 [RTV, ritonavir]","Susceptibility, Fold Change in EC50 relative to reference strain","[1]; Subject 076, Week 80",0.3 Fold Change
same,"Susceptibility, Fold Change in EC50 relative to reference strain","[1]; Subject 076, Week 92",0.3 Fold Change
same,"Susceptibility, Fold Change in EC50 relative to reference strain","[1]; Subject 100, Week 1.7",2.2 Fold Change
same,"Susceptibility, Fold Change in EC50 relative to reference strain","[1]; Subject 169, Week 0.1",1.5 Fold Change
same,"Susceptibility, Fold Change in EC50 relative to reference strain","[1]; Subject 169, Week 90",0.3 Fold Change
same,"Susceptibility, Fold Change in EC50 relative to reference strain","[1]; Subject 169, Week 102",0.3 Fold Change
same,"Subceptibility, Fold Change in EC50 relative to reference strain",[1],0.4 Fold Change
same,"Susceptibility, Fold Change in EC50 relative to reference strain","[1]; Subject 362, Week 0.1",1.1 Fold Change
same,"Susceptibility, Fold Change in EC50 relative to reference strain","[1]; Subject 362, Week 108",0.4 Fold Change
same,percentage of baseline isolates exhibiting a FC≦0.4,[1],10%
same,median increase in susceptibility from baseline,[1],4.1 fold
same,percentage of I50L isolates with susceptibility (FC) 0.4-fold or lower,[1],83%
same,median FC,[1],≤ 0.4
same,change in susceptibility,[4],enhanced susceptibility
same,susceptibility,[5],remained susceptible
same,effect of I50V on susceptibility,[6],reduced susceptibility
"CC(C)(C)NC(=O)[C@@H]1C[C@@H]2CCCC[C@@H]2CN1C[C@@H](O)[C@H](Cc1ccccc1)NC(=O)[C@H](CC(N)=O)NC(=O)c1ccc2ccccc2n1 [SQV, saquinavir]","Susceptibility, Fold Change in EC50 relative to reference strain","[1]; Subject 076, Week 80",0.3 Fold Change
same,"Susceptibility, Fold Change in EC50 relative to reference strain","[1]; Subject 076, Week 92",0.5 Fold Change
same,"Susceptibility, Fold Change in EC50 relative to reference strain","[1]; Subject 100, Week 1.7",1.3 Fold Change
same,"Susceptibility, Fold Change in EC50 relative to reference strain","[1]; Subject 169, Week 0.1",0.8 Fold Change
same,"Susceptibility, Fold Change in EC50 relative to reference strain","[1]; Subject 169, Week 90",0.5 Fold Change
same,"Susceptibility, Fold Change in EC50 relative to reference strain","[1]; Subject 169, Week 102",0.4 Fold Change
same,"Subceptibility, Fold Change in EC50 relative to reference strain",[1],0.5 Fold Change
same,"Susceptibility, Fold Change in EC50 relative to reference strain","[1]; Subject 362, Week 0.1",1.0 Fold Change
same,"Susceptibility, Fold Change in EC50 relative to reference strain","[1]; Subject 362, Week 108",0.5 Fold Change
same,percentage of baseline isolates exhibiting a FC≦0.4,[1],10%
same,median increase in susceptibility from baseline,[1],2.0 fold
same,percentage of I50L isolates with susceptibility (FC) 0.4-fold or lower,[1],72%
same,median FC,[1],≤ 0.4
same,change in susceptibility,[4],enhanced susceptibility
same,susceptibility,[5],remained susceptible
same,effect of I50V on susceptibility,[6],increased susceptibility

# From patent US20050148523A1, “Method of treating HIV infection in atazanavir-resistant patients using a combination of atazanavir and another protease inhibitor” (priority 2003, published 2005)
